{
  "source": "ChEMBL document CHEMBL5338719",
  "about": "“Recent advance on pleiotropic cholinesterase inhibitors bearing amyloid modulation efficacy” (Eur J Med Chem, 2022)",
  "key": {"Acetylcholinesterase [1]": {"molecular_target": "Acetylcholinesterase (Torpedo californica, UniProt P04058)", "sequence (P04058 whole entry)": "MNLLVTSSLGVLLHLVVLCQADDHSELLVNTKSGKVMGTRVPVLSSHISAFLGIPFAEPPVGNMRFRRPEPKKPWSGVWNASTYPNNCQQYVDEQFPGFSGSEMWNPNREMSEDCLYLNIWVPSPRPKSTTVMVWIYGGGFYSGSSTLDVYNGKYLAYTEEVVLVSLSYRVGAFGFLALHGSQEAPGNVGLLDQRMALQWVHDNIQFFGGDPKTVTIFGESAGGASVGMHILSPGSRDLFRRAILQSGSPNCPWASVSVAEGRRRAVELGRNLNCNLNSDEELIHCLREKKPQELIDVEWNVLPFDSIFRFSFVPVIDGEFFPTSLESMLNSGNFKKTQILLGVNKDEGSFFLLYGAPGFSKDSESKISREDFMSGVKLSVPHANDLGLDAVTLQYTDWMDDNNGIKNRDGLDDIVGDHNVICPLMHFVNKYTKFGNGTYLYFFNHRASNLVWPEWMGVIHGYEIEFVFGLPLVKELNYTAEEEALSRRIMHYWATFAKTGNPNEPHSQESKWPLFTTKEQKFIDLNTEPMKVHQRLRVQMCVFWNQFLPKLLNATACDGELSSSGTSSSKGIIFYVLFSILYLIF", "assay": "Inhibition of pacific electric ray AChE incubated for 15 mins", "design": "species or system Tetronarce californica"}, "[2]": {"molecular_target": "T1, Amyloid-beta precursor protein (Homo sapiens, UniProt P05067)", "T1 sequence (P05067 whole entry)": "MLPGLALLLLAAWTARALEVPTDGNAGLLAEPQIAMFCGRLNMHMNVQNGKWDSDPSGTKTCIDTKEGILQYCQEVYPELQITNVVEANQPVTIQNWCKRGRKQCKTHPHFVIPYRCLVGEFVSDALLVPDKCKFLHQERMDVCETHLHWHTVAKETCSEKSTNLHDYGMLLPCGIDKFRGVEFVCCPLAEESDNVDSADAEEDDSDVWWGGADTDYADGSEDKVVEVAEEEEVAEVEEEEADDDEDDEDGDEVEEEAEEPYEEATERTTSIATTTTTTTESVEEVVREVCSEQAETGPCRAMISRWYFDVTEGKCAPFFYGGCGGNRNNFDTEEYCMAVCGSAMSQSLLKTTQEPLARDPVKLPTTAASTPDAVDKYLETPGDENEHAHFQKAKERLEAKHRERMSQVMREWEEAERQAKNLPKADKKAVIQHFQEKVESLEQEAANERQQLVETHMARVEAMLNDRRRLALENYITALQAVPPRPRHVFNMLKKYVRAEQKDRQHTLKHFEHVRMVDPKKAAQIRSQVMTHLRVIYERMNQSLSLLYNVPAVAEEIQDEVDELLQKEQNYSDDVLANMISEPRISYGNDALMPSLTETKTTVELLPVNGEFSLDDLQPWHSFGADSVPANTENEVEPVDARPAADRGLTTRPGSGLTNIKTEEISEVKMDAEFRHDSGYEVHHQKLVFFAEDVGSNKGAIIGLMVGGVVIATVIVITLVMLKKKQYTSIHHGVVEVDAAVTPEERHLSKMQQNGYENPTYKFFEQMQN", "assay": "Inhibition of amyloid beta 42 (unknown origin) self aggregation at 80 uM incubated for 24 hrs by fluoroscence emission relative to control"}, "[3]": {"molecular_target": "T1, Amyloid-beta precursor protein", "assay": "Inhibition of amyloid beta 1 to 42 (unknown origin) self induced aggregation at 100 uM by thioflavin T-based fluorometric assay relative to control"}, "Acetylcholinesterase [4]": {"molecular_target": "T2, Acetylcholinesterase (Homo sapiens, UniProt P22303)", "T2 sequence (P22303 whole entry)": "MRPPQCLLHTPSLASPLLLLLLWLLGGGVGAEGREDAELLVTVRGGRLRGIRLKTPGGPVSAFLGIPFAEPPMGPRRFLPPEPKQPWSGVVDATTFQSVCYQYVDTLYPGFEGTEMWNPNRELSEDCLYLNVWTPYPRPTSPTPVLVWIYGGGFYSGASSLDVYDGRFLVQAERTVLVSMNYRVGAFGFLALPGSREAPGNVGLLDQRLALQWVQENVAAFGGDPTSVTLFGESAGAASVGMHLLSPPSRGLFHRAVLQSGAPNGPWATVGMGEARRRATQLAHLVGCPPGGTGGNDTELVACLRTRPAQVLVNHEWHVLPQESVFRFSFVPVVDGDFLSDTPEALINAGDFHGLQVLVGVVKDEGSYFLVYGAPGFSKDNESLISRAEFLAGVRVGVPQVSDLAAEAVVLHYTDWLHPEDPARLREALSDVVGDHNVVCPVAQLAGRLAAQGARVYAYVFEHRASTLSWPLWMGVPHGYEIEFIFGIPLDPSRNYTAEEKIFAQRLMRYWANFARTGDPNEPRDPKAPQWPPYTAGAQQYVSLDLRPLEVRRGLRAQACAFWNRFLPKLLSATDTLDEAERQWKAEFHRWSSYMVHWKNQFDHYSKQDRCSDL", "assay": "Inhibition of human AChE by Ellmans method"}, "Cholinesterase [5]": {"molecular_target": "T3, Cholinesterase (Homo sapiens, UniProt P06276)", "T3 sequence (P06276 whole entry)": "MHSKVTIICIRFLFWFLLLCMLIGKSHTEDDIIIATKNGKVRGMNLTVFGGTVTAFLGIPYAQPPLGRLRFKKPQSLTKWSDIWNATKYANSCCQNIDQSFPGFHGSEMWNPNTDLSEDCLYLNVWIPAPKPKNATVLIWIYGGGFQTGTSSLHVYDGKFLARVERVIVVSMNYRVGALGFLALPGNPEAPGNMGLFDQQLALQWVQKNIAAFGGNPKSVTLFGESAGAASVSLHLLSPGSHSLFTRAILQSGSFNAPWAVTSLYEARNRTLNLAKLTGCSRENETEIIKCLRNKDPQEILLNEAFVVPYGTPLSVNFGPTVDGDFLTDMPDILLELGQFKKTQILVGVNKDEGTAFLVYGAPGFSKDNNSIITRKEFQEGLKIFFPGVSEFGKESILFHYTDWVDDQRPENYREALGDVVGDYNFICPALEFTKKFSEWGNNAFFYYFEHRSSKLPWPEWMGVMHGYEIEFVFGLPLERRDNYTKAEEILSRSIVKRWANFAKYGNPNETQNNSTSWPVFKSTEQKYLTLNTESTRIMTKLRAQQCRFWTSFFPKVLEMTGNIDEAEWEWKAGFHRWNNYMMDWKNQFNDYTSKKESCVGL", "assay": "Inhibition of human BChE by Ellmans method"}, "Beta-secretase 1 [6]": {"molecular_target": "T4, Beta-secretase 1 (Homo sapiens, UniProt P56817)", "T4 sequence (P56817 whole entry)": "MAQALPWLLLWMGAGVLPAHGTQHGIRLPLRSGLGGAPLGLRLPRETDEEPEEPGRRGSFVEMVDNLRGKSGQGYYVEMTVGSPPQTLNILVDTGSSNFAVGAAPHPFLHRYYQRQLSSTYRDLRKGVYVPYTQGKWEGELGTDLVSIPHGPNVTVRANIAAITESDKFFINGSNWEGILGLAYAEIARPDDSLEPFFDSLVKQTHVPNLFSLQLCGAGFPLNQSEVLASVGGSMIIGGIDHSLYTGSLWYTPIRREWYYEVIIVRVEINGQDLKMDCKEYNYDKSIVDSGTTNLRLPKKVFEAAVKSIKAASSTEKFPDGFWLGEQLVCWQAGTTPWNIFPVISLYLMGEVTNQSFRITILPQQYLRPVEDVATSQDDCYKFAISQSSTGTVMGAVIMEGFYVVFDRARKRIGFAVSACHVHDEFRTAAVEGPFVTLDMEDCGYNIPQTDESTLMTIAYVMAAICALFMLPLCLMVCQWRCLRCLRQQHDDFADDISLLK", "assay": "Inhibition of BACE1 (unknown origin) by FRET-based fluorescent analysis"}, "Acetylcholinesterase [7]": {"molecular_target": "T5, Acetylcholinesterase (Electrophorus electricus, UniProt O42275)", "T5 sequence (O42275 whole entry)": "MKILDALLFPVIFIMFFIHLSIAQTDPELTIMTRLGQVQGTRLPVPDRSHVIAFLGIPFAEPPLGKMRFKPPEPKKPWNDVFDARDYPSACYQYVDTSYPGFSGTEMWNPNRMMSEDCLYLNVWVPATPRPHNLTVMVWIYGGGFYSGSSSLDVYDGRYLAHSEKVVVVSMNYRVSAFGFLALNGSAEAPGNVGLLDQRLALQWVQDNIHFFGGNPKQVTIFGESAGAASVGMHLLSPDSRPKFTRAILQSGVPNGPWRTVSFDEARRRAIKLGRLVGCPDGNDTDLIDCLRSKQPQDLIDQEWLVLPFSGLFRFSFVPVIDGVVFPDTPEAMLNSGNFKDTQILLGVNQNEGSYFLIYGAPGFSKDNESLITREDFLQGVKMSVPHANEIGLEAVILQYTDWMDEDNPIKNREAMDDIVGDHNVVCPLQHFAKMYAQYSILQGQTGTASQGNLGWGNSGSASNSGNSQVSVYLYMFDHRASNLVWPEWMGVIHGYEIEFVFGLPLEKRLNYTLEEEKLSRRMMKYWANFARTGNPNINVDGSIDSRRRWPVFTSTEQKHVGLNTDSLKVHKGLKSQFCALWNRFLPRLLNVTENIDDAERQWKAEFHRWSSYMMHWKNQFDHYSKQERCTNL", "assay": "Inhibition of electric eel AChE using ATChI as substrate"}, "Cholinesterase [8]": {"molecular_target": "T6, Cholinesterase (Equus caballus, UniProt P81908)", "T6 sequence (P81908 whole entry)": "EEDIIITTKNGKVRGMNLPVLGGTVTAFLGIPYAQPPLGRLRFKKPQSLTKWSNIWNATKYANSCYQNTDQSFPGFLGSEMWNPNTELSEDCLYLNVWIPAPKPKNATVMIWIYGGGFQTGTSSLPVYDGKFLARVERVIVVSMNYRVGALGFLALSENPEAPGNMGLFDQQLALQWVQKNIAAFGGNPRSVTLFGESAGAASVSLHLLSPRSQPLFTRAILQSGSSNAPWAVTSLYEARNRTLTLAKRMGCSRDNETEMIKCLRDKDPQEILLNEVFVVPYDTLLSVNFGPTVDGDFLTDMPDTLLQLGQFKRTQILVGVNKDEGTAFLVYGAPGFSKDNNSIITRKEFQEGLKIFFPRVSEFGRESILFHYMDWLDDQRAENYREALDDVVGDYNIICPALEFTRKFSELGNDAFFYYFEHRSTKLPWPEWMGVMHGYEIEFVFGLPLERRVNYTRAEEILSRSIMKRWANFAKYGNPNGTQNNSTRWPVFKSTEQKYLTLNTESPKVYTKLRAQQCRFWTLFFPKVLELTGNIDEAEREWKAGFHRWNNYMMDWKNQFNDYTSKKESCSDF", "assay": "Inhibition of equine BChE using BTChI as substrate"}, "Beta-secretase 1 [9]": {"molecular_target": "T4, Beta-secretase 1", "assay": "Inhibition of BACE1 (unknown origin) at 20 uM by fluorescence assay relative to control"}, "[10]": {"molecular_target": "T1, Amyloid-beta precursor protein", "assay": "Inhibition of amyloid beta 42 (unknown origin) fibrillization at 44 uM for 48 hrs by ThT fluorescence assay relative to control"}, "Acetylcholinesterase [11]": {"molecular_target": "T2, Acetylcholinesterase", "assay": "Inhibition of human AChE by Ellman's method"}, "Cholinesterase [12]": {"molecular_target": "T6, Cholinesterase", "assay": "Inhibition of equine BChE by Ellman's method"}, "[13]": {"molecular_target": "T1, Amyloid-beta precursor protein", "assay": "Inhibition of amyloid beta 42 (unknown origin) aggregation at 25 uM by Thioflavin T-based fluorescence assay relative to control"}, "Acetylcholinesterase [14]": {"molecular_target": "T5, Acetylcholinesterase", "assay": "Inhibition of electric eel AChE by Ellman's method"}, "[15]": {"molecular_target": "T1, Amyloid-beta precursor protein", "assay": "Inhibition of amyloid beta 42 (unknown origin) self aggregation at 25 uM by ThT fluorometric assay relative to control"}, "Cholinesterase [16]": {"molecular_target": "T3, Cholinesterase", "assay": "Inhibition of human BChE"}, "Beta-secretase 1 [17]": {"molecular_target": "T4, Beta-secretase 1", "assay": "Inhibition of BACE1 (unknown origin)"}, "[18]": {"molecular_target": "T1, Amyloid-beta precursor protein", "assay": "Inhibition of amyloid beta 1 to 42 (unknown origin) CuCl2 induced aggregation at 40 uM by ThT fluorometric assay relative to control"}, "[19]": {"molecular_target": "T1, Amyloid-beta precursor protein", "assay": "Inhibition of amyloid beta 42 (unknown origin) aggregation at 25 uM relative to control"}, "Acetylcholinesterase [20]": {"molecular_target": "T5, Acetylcholinesterase", "assay": "Inhibition of electric eel AChE"}, "Acetylcholinesterase [21]": {"molecular_target": "T2, Acetylcholinesterase", "assay": "Inhibition of human recombinant AChE preincubated for 5 mins followed by substrate addition measured every 2 mins by Ellmans method"}, "Cholinesterase [22]": {"molecular_target": "T3, Cholinesterase", "assay": "Inhibition of human recombinant BChE by Ellmans method preincubated for 5 mins followed by substrate addition measured every 2 mins"}, "[23]": {"molecular_target": "T1, Amyloid-beta precursor protein", "assay": "Inhibition of amyloid beta 42 (unknown origin) self aggregation incubated for 48 hrs by fluoroMax-4 spectrofluorometeric analysis"}, "Cholinesterase [24]": {"molecular_target": "T6, Cholinesterase", "assay": "Inhibition of equine BChE incubated for 15 mins by Ellman's method"}, "[25]": {"molecular_target": "T1, Amyloid-beta precursor protein", "assay": "Inhibition of amyloid beta 42 (unknown origin) aggregation at 10 uM for 24 hrs by ThT fluorescence assay relative to control"}, "Acetylcholinesterase [26]": {"molecular_target": "T2, Acetylcholinesterase", "assay": "Inhibition of human recombinant AChE expressed in HEK293 cells using acetylthiocholine as substrate incubated for 120 mins by Ellman's method"}, "Cholinesterase [27]": {"molecular_target": "T3, Cholinesterase", "assay": "Inhibition of human recombinant BChE expressed in HEK293 cells using butyrylthiocholine as substrate incubated for 120 mins by Ellman's method"}, "[28]": {"molecular_target": "T1, Amyloid-beta precursor protein", "assay": "Inhibition of amyloid beta 42 (unknown origin) aggregation at 1 mM for 12 hrs relative to control"}, "Acetylcholinesterase [29]": {"molecular_target": "T2, Acetylcholinesterase", "assay": "Inhibition of human recombinant AChE by spectrophotometer based Ellman's method"}, "[30]": {"molecular_target": "T1, Amyloid-beta precursor protein", "assay": "Inhibition of amyloid beta 42 (unknown origin) aggregation at 50 uM for 24 hrs by thioflavin T fluorescence method relative to control"}, "[31]": {"molecular_target": "T1, Amyloid-beta precursor protein", "assay": "Inhibition of amyloid beta 1 to 42 (unknown origin) aggregation at 10 uM for 24 hrs by ThT fluorometric assay relative to control"}, "Acetylcholinesterase [32]": {"molecular_target": "T2, Acetylcholinesterase", "assay": "Inhibition of human AChE"}, "[33]": {"molecular_target": "T1, Amyloid-beta precursor protein", "assay": "Inhibition of amyloid beta 1 to 42 (unknown origin) aggregation at 50 uM measured every 10 mins for 72 hrs by ThT fluorometric assay relative to control"}, "[34]": {"molecular_target": "Microtubule-associated protein tau (Homo sapiens) (UniProt P10636)", "sequence (P10636 whole entry)": "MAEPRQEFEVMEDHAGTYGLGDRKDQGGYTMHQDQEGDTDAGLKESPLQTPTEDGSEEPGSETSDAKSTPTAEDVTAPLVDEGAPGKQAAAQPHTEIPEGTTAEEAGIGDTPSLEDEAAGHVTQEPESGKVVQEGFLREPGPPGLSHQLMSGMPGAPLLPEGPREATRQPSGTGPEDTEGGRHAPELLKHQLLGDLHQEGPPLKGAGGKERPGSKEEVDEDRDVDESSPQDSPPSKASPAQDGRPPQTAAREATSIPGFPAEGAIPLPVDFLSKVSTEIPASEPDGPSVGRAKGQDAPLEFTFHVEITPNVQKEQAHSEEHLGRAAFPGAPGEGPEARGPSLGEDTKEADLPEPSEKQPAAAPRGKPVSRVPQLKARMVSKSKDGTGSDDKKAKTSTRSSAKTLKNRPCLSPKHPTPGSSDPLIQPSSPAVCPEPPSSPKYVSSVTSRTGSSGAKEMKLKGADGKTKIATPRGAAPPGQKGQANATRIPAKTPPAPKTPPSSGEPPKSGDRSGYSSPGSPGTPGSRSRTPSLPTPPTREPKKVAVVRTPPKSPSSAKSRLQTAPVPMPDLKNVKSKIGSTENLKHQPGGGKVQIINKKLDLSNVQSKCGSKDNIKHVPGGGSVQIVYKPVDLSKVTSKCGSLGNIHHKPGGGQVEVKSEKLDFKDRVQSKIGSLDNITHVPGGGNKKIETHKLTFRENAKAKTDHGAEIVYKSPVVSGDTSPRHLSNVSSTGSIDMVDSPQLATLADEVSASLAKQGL", "assay": "Inhibition of tau (306 to 336 residue) (unknown origin) aggregation at 50 uM incubated overnight by ThT fluorometric assay relative to control"}},
  "data": [
    {"compound": "COc1ccc(C(=O)CCC(=O)NCCCNc2c3c(nc4ccccc24)CCCC3)c2ccccc12", "values": [
      {"measurement": "IC50", "setting": "Acetylcholinesterase [1]", "value": 0.12, "unit": "µM"},
      {"measurement": "inhibition", "setting": "[2]", "value": 70.5, "unit": "%"}
    ]},
    {"compound": "CCN(CCCCCOc1cc(O)c2c(c1)OC(c1ccc(O)cc1)CC2=O)Cc1ccccc1", "note": "(stereo unspecified)", "values": [
      {"measurement": "inhibition", "setting": "[3]", "value": 62.1, "unit": "%"}
    ]},
    {"compound": "FC(F)(F)c1ccc(-c2nnc(CNC3CCN(Cc4ccccc4)C3)o2)cc1", "note": "(stereo unspecified)", "values": [
      {"measurement": "IC50", "setting": "Acetylcholinesterase [4]", "value": 0.064, "unit": "µM"},
      {"measurement": "IC50", "setting": "Cholinesterase [5]", "value": 0.074, "unit": "µM"},
      {"measurement": "IC50", "setting": "Beta-secretase 1 [6]", "value": 0.143, "unit": "µM"}
    ]},
    {"compound": "CCCOc1ccc2c(C)cc(=S)oc2c1OCCC", "values": [
      {"measurement": "IC50", "setting": "Acetylcholinesterase [7]", "value": 5.63, "unit": "µM"},
      {"measurement": "IC50", "setting": "Cholinesterase [8]", "value": 17, "unit": "µM"},
      {"measurement": "inhibition", "setting": "Beta-secretase 1 [9]", "value": 57.2, "unit": "%"},
      {"measurement": "inhibition", "setting": "[10]", "value": 76.7, "unit": "%"}
    ]},
    {"compound": "c1cc2[nH]c3nc(NCCCCCCN4CCCC4)nnc3c2cc1N1CCCCC1", "values": [
      {"measurement": "IC50", "setting": "Acetylcholinesterase [11]", "value": 0.32, "unit": "µM"},
      {"measurement": "IC50", "setting": "Cholinesterase [12]", "value": 0.21, "unit": "µM"},
      {"measurement": "inhibition", "setting": "[13]", "value": 54.3, "unit": "%"}
    ]},
    {"compound": "O=C(/C=C/c1cccs1)N1CCc2ccccc2C1", "values": [
      {"measurement": "IC50", "setting": "Cholinesterase [5]", "value": 2.5, "unit": "µM"},
      {"measurement": "IC50", "setting": "Acetylcholinesterase [14]", "value": 19.4, "unit": "µM"},
      {"measurement": "inhibition", "setting": "[15]", "value": 65.2, "unit": "%"}
    ]},
    {"compound": "N=c1oc2ccccc2cc1C(=O)Nc1cc(Br)ccc1N1CCN(Cc2ccc(F)cc2)CC1", "values": [
      {"measurement": "IC50", "setting": "Cholinesterase [16]", "value": 10.5, "unit": "µM"},
      {"measurement": "IC50", "setting": "Beta-secretase 1 [17]", "value": 6.31, "unit": "µM"}
    ]},
    {"compound": "CC(C)C1NC(=O)C=C1NCCN1CCN(Cc2ccccc2)CC1", "note": "(stereo unspecified)", "values": [
      {"measurement": "inhibition", "setting": "[18]", "value": 78.4, "unit": "%"}
    ]},
    {"compound": "COC(=O)C(C)c1ccc(-c2ccc(C(=O)/C=C/c3ccc(CN4CCCC4)c(O)c3)cc2)c(F)c1", "note": "(stereo unspecified)", "values": [
      {"measurement": "inhibition", "setting": "[19]", "value": 70.7, "unit": "%"},
      {"measurement": "IC50", "setting": "Acetylcholinesterase [20]", "value": 7.15, "unit": "µM"}
    ]},
    {"compound": "O=C(NCCCNc1c2c(nc3cc(Cl)ccc13)CCCC2)c1nc2ccc([N+](=O)[O-])cc2s1", "values": [
      {"measurement": "IC50", "setting": "Acetylcholinesterase [21]", "value": 0.018, "unit": "µM"},
      {"measurement": "IC50", "setting": "Cholinesterase [22]", "value": 4660, "unit": "µM"},
      {"measurement": "IC50", "setting": "[23]", "value": 3.8, "unit": "µM"}
    ]},
    {"compound": "CN(C)/C=C/C(=O)c1cc2ccc(OCc3cn(Cc4ccc(F)c(F)c4)nn3)cc2oc1=O", "values": [
      {"measurement": "IC50", "setting": "Cholinesterase [24]", "value": 21.7, "unit": "µM"},
      {"measurement": "inhibition", "setting": "[25]", "value": 32.6, "unit": "%"}
    ]},
    {"compound": "O=C(C[n+]1ccc2ccccc2c1)Nc1ccccc1Br", "values": [
      {"measurement": "IC50", "setting": "Acetylcholinesterase [26]", "value": 13, "unit": "µM"},
      {"measurement": "IC50", "setting": "Cholinesterase [27]", "value": 12, "unit": "µM"},
      {"measurement": "inhibition", "setting": "[28]", "value": 18, "unit": "%"}
    ]},
    {"compound": "CC1=C(NC2CCN(Cc3ccccc3)CC2)C(=O)c2ccccc2C1=O", "values": [
      {"measurement": "IC50", "setting": "Acetylcholinesterase [29]", "value": 47.5, "unit": "µM"},
      {"measurement": "inhibition", "setting": "[30]", "value": 52, "unit": "%"}
    ]},
    {"compound": "O=S(=O)(NCC1CCN(Cc2ccccc2)CC1)c1ccc(-c2ccccc2)cc1", "values": [
      {"measurement": "inhibition", "setting": "[31]", "value": 60.7, "unit": "%"}
    ]},
    {"compound": "Clc1ccc2c(NCCCCCN3c4ccccc4Sc4ccccc43)c3c(nc2c1)CCCC3", "values": [
      {"measurement": "IC50", "setting": "Acetylcholinesterase [32]", "value": 0.008, "unit": "µM"},
      {"measurement": "IC50", "setting": "Cholinesterase [16]", "value": 0.19, "unit": "µM"},
      {"measurement": "inhibition", "setting": "[33]", "value": 74.1, "unit": "%"},
      {"measurement": "inhibition", "setting": "[34]", "value": 50.5, "unit": "%"}
    ]}
  ]
}
